Columns and labels:
[1] = tested on: Chinese sprangletop; assay: Test Example 3: herbicidal effect by foliage application, Wagner pot (Table 18, symbol D); format: in vivo, chinese sprangletop (Leptochloa chinensis); conditions: amount of applied herbicide 320 g/ha
Method in brief: (§1)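 Plants were sown in alluvial soil held under 0.1–0.5 cm standing water and grown 14 days in a greenhouse at 25–30 °C. An emulsifiable formulation, water-diluted to the set dose, was then sprayed onto the foliage, and effects were scored three weeks later using previously defined criteria.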

[2] = tested on: southern crabgrass; assay: Test Example 5: herbicidal effect by foliage application, plastic box (Table 20, symbol F); format: in vivo, southern crabgrass (Digitaria ciliaris); conditions: foliage application, 320 g/ha, evaluated three weeks after application
Method in brief: (§2)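 Post-emergence foliar test in sterilized diluvial soil. Compound applied as water-diluted emulsion at a predetermined rate to 14-day-old plants; evaluation at three weeks.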

[3] = tested on: barnyard grass; assay: Test Example 3: herbicidal effect by foliage application, Wagner pot (Table 18, symbol H); format: in vivo, barnyard grass (Echinochloa crus-galli); conditions: amount of applied herbicide 320 g/ha
Method in brief: as §1

[4] = tested on: persian speedwell; assay: Test Example 4: herbicidal effect by soil treatment (Table 19, symbol R); format: in vivo, Persian speedwell (Veronica persica); conditions: amount of applied herbicide 320 g/ha
Method in brief: (§3)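 Emulsion of test compound, water-diluted to predetermined amount, sprayed on soil after sowing (seed depth ~1.5 cm, sterilized diluvial soil). Greenhouse, 25–30° C. Effect graded at three weeks post-spray.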

[5] = tested on: green foxtail; assay: Test Example 4: herbicidal effect by soil treatment (Table 19, symbol G); format: in vivo, green foxtail (Setaria viridis); conditions: amount of applied herbicide 320 g/ha
Method in brief: as §3

[6] = tested on: late watergrass; assay: Test Example 1: herbicidal activity, application before weed generation under submerged conditions (Table 16, symbol A); format: in vivo, late watergrass (Echinochloa oryzicola); conditions: 320 g/ha applied herbicide
Method in brief: (§4)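 Submerged Wagner pots (alluvial soil, 4 cm water) sown with weed seeds and planted with 2.5-leaf rice seedlings; emulsifiable concentrate diluted in water applied to water surface on sowing day. Held in greenhouse at 25-30 °C; injury scored 0-5 by herbicidal rate after three weeks.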

[7] = tested on: redroot pigweed; assay: Test Example 5: herbicidal effect by foliage application, plastic box (Table 20, symbol N); format: in vivo, redroot pigweed (Amaranthus retroflexus); conditions: foliage application, 320 g/ha, evaluated three weeks after application
Method in brief: as §2

[8] = tested on: chickweed; assay: Test Example 5: herbicidal effect by foliage application, plastic box (Table 20, symbol P); format: in vivo, common chickweed (Stellaria media); conditions: foliage application, 320 g/ha, evaluated three weeks after application
Method in brief: as §2

[9] = tested on: Italian ryegrass; assay: Test Example 4: herbicidal effect by soil treatment (Table 19, symbol K); format: in vivo, Italian ryegrass (Lolium multiflorum); conditions: amount of applied herbicide 320 g/ha
Method in brief: as §3

[10] = tested on: oval-leafed pondweed; assay: Test Example 1: herbicidal activity, application before weed generation under submerged conditions (Table 16, symbol C); format: in vivo, oval-leafed pondweed (Monochoria vaginalis); conditions: 320 g/ha applied herbicide
Method in brief: as §4

[11] = tested on: wild oat; assay: Test Example 4: herbicidal effect by soil treatment (Table 19, symbol I); format: in vivo, wild oat (Avena fatua); conditions: amount of applied herbicide 320 g/ha
Method in brief: as §3

[12] = tested on: southern crabgrass; assay: Test Example 4: herbicidal effect by soil treatment (Table 19, symbol F); format: in vivo, southern crabgrass (Digitaria ciliaris); conditions: amount of applied herbicide 320 g/ha
Method in brief: as §3

[13] = tested on: velvetleaf; assay: Test Example 5: herbicidal effect by foliage application, plastic box (Table 20, symbol M); format: in vivo, velvetleaf (Abutilon theophrasti); conditions: foliage application, 320 g/ha, evaluated three weeks after application
Method in brief: as §2

[14] = tested on: redroot pigweed; assay: Test Example 4: herbicidal effect by soil treatment (Table 19, symbol N); format: in vivo, redroot pigweed (Amaranthus retroflexus); conditions: amount of applied herbicide 320 g/ha
Method in brief: as §3

[15] = tested on: rice flat sedge; assay: Test Example 3: herbicidal effect by foliage application, Wagner pot (Table 18, symbol E); format: in vivo, rice flat sedge (Cyperus iria); conditions: amount of applied herbicide 320 g/ha
Method in brief: as §1

[16] = tested on: persian speedwell; assay: Test Example 5: herbicidal effect by foliage application, plastic box (Table 20, symbol R); format: in vivo, Persian speedwell (Veronica persica); conditions: foliage application, 320 g/ha, evaluated three weeks after application
Method in brief: as §2

[17] = tested on: blackgrass; assay: Test Example 4: herbicidal effect by soil treatment (Table 19, symbol J); format: in vivo, blackgrass (Alopecurus myosuroides); conditions: amount of applied herbicide 320 g/ha
Method in brief: as §3

[18] = tested on: lambsquarters; assay: Test Example 5: herbicidal effect by foliage application, plastic box (Table 20, symbol O); format: in vivo, lambsquarters (Chenopodium album); conditions: foliage application, 320 g/ha, evaluated three weeks after application
Method in brief: as §2

[19] = tested on: green foxtail; assay: Test Example 5: herbicidal effect by foliage application, plastic box (Table 20, symbol G); format: in vivo, green foxtail (Setaria viridis); conditions: foliage application, 320 g/ha, evaluated three weeks after application
Method in brief: as §2

[20] = tested on: barnyard grass; assay: Test Example 4: herbicidal effect by soil treatment (Table 19, symbol H); format: in vivo, barnyard grass (Echinochloa crus-galli); conditions: amount of applied herbicide 320 g/ha
Method in brief: as §3

[21] = tested on: lambsquarters; assay: Test Example 4: herbicidal effect by soil treatment (Table 19, symbol O); format: in vivo, lambsquarters (Chenopodium album); conditions: amount of applied herbicide 320 g/ha
Method in brief: as §3

[22] = tested on: blackgrass; assay: Test Example 5: herbicidal effect by foliage application, plastic box (Table 20, symbol J); format: in vivo, blackgrass (Alopecurus myosuroides); conditions: foliage application, 320 g/ha, evaluated three weeks after application
Method in brief: as §2

[23] = tested on: chickweed; assay: Test Example 4: herbicidal effect by soil treatment (Table 19, symbol P); format: in vivo, common chickweed (Stellaria media); conditions: amount of applied herbicide 320 g/ha
Method in brief: as §3

[24] = tested on: windgrass; assay: Test Example 5: herbicidal effect by foliage application, plastic box (Table 20, symbol L); format: in vivo, windgrass (Apera spica-venti); conditions: foliage application, 320 g/ha, evaluated three weeks after application
Method in brief: as §2

[25] = tested on: Italian ryegrass; assay: Test Example 5: herbicidal effect by foliage application, plastic box (Table 20, symbol K); format: in vivo, Italian ryegrass (Lolium multiflorum); conditions: foliage application, 320 g/ha, evaluated three weeks after application
Method in brief: as §2

[26] = tested on: barnyard grass; assay: Test Example 5: herbicidal effect by foliage application, plastic box (Table 20, symbol H); format: in vivo, barnyard grass (Echinochloa crus-galli); conditions: foliage application, 320 g/ha, evaluated three weeks after application
Method in brief: as §2

[27] = tested on: windgrass; assay: Test Example 4: herbicidal effect by soil treatment (Table 19, symbol L); format: in vivo, windgrass (Apera spica-venti); conditions: amount of applied herbicide 320 g/ha
Method in brief: as §3

[28] = tested on: wild oat; assay: Test Example 5: herbicidal effect by foliage application, plastic box (Table 20, symbol I); format: in vivo, wild oat (Avena fatua); conditions: foliage application, 320 g/ha, evaluated three weeks after application
Method in brief: as §2

[29] = tested on: Japanese bulrush; assay: Test Example 1: herbicidal activity, application before weed generation under submerged conditions (Table 16, symbol B); format: in vivo, Japanese bulrush (Schoenoplectus juncoides); conditions: 320 g/ha applied herbicide
Method in brief: as §4

[30] = tested on: velvetleaf; assay: Test Example 4: herbicidal effect by soil treatment (Table 19, symbol M); format: in vivo, velvetleaf (Abutilon theophrasti); conditions: amount of applied herbicide 320 g/ha
Method in brief: as §3

Compound	herbicidal effect on D: Chinese sprangletop [1]	herbicidal effect on F: southern crabgrass (criteria 0-5) [2]	herbicidal effect on H: barnyard grass [3]	R: persian speedwell, herbicidal effect rating [4]	G: green foxtail, herbicidal effect rating [5]	Herbicidal effect on A: late watergrass (grade 0-5) [6]	herbicidal effect on N: redroot pigweed (criteria 0-5) [7]	herbicidal effect on P: chickweed (criteria 0-5) [8]	K: Italian ryegrass, herbicidal effect rating [9]	Herbicidal effect on C: oval-leafed pondweed (grade 0-5) [10]	I: wild oat, herbicidal effect rating [11]	F: southern crabgrass, herbicidal effect rating [12]	herbicidal effect on M: velvetleaf (criteria 0-5) [13]	N: redroot pigweed, herbicidal effect rating [14]	herbicidal effect on E: rice flat sedge [15]	herbicidal effect on R: persian speedwell (criteria 0-5) [16]	J: blackgrass, herbicidal effect rating [17]	herbicidal effect on O: lambsquarters (criteria 0-5) [18]	herbicidal effect on G: green foxtail (criteria 0-5) [19]	H: barnyard grass, herbicidal effect rating [20]	further results
Cc1nn(C)c(=O)c(-c2c(-c3ccccc3Cl)sc3ccc(F)cc23)c1O [2-203]	4 (Herbicidal rate of 70% or more and less than 90%)	0 (Herbicidal rate of 5% or less (almost no effect))	4 (Herbicidal rate of 70% or more and less than 90%)	0 (Herbicidal rate of 5% or less (almost no effect))	0 (Herbicidal rate of 5% or less (almost no effect))	2 (Herbicidal rate of 20% or more and less than 40%)	3 (Herbicidal rate of 40% or more and less than 70%)	5 (Herbicidal rate of 90% or more (almost completely withered))	0 (Herbicidal rate of 5% or less (almost no effect))	0 (Herbicidal rate of 5% or less (almost no effect))	0 (Herbicidal rate of 5% or less (almost no effect))	0 (Herbicidal rate of 5% or less (almost no effect))	4 (Herbicidal rate of 70% or more and less than 90%)	2 (Herbicidal rate of 20% or more and less than 40%)	5 (Herbicidal rate of 90% or more (almost completely withered))	4 (Herbicidal rate of 70% or more and less than 90%)	0 (Herbicidal rate of 5% or less (almost no effect))	3 (Herbicidal rate of 40% or more and less than 70%)	4 (Herbicidal rate of 70% or more and less than 90%)	0 (Herbicidal rate of 5% or less (almost no effect))	O: lambsquarters, herbicidal effect rating [21]: 3 (Herbicidal rate of 40% or more and less than 70%); herbicidal effect on J: blackgrass (criteria 0-5) [22]: 0 (Herbicidal rate of 5% or less (almost no effect)); P: chickweed, herbicidal effect rating [23]: 3 (Herbicidal rate of 40% or more and less than 70%); herbicidal effect on L: windgrass (criteria 0-5) [24]: 4 (Herbicidal rate of 70% or more and less than 90%); herbicidal effect on K: Italian ryegrass (criteria 0-5) [25]: 2 (Herbicidal rate of 20% or more and less than 40%); herbicidal effect on H: barnyard grass (criteria 0-5) [26]: 2 (Herbicidal rate of 20% or more and less than 40%); L: windgrass, herbicidal effect rating [27]: 0 (Herbicidal rate of 5% or less (almost no effect)); herbicidal effect on I: wild oat (criteria 0-5) [28]: 0 (Herbicidal rate of 5% or less (almost no effect)); Herbicidal effect on B: Japanese bulrush (grade 0-5) [29]: 0 (Herbicidal rate of 5% or less (almost no effect)); M: velvetleaf, herbicidal effect rating [30]: 1 (Herbicidal rate of 5% or more and less than 20%)
CCOc1cccc(-c2sc3ccc(F)cc3c2-c2c(O)c(C)nn(C)c2=O)c1 [2-211]	5 (Herbicidal rate of 90% or more (almost completely withered))	5 (Herbicidal rate of 90% or more (almost completely withered))	5 (Herbicidal rate of 90% or more (almost completely withered))	5 (Herbicidal rate of 90% or more (almost completely withered))	4 (Herbicidal rate of 70% or more and less than 90%)	2 (Herbicidal rate of 20% or more and less than 40%)	5 (Herbicidal rate of 90% or more (almost completely withered))	5 (Herbicidal rate of 90% or more (almost completely withered))	5 (Herbicidal rate of 90% or more (almost completely withered))	0 (Herbicidal rate of 5% or less (almost no effect))	0 (Herbicidal rate of 5% or less (almost no effect))	5 (Herbicidal rate of 90% or more (almost completely withered))	5 (Herbicidal rate of 90% or more (almost completely withered))	5 (Herbicidal rate of 90% or more (almost completely withered))	4 (Herbicidal rate of 70% or more and less than 90%)	5 (Herbicidal rate of 90% or more (almost completely withered))	4 (Herbicidal rate of 70% or more and less than 90%)	5 (Herbicidal rate of 90% or more (almost completely withered))	5 (Herbicidal rate of 90% or more (almost completely withered))	5 (Herbicidal rate of 90% or more (almost completely withered))	O: lambsquarters, herbicidal effect rating [21]: 2 (Herbicidal rate of 20% or more and less than 40%); herbicidal effect on J: blackgrass (criteria 0-5) [22]: 4 (Herbicidal rate of 70% or more and less than 90%); P: chickweed, herbicidal effect rating [23]: 3 (Herbicidal rate of 40% or more and less than 70%); herbicidal effect on L: windgrass (criteria 0-5) [24]: 4 (Herbicidal rate of 70% or more and less than 90%); herbicidal effect on K: Italian ryegrass (criteria 0-5) [25]: 5 (Herbicidal rate of 90% or more (almost completely withered)); herbicidal effect on H: barnyard grass (criteria 0-5) [26]: 5 (Herbicidal rate of 90% or more (almost completely withered)); L: windgrass, herbicidal effect rating [27]: 3 (Herbicidal rate of 40% or more and less than 70%); herbicidal effect on I: wild oat (criteria 0-5) [28]: 0 (Herbicidal rate of 5% or less (almost no effect)); Herbicidal effect on B: Japanese bulrush (grade 0-5) [29]: 0 (Herbicidal rate of 5% or less (almost no effect)); M: velvetleaf, herbicidal effect rating [30]: 3 (Herbicidal rate of 40% or more and less than 70%)

Source: US20230085307A1, “PYRIDAZINONE COMPOUND AND HERBICIDE” (NISSAN CHEMICAL CORPORATION, priority 2019, published 2023)
